This passage reports IC50, Target and Ki results from patent publication US20030190325A1, “Novel peroxiredoxin defense system from mycobacterium tuberculosis” (priority 2002, published 2003).

Assay [1] deals with T1, Lpd, SucB, AhpD (Mycobacterium tuberculosis, UniProt P9WHH9+P9WIS7+P9WQB5).
T1 construct: Lpd and SucB ORFs were amplified by PCR from M. tuberculosis H37Rv genomic DNA; The AhpD open reading frame (ORF) was amplified by PCR with engineered 5′ NdeI and 3′ NheI sites and cloned into pET11c; made in house; host or cells: E. coli BL21(DE3), pET11c
T1 sequence (P9WHH9 1-464): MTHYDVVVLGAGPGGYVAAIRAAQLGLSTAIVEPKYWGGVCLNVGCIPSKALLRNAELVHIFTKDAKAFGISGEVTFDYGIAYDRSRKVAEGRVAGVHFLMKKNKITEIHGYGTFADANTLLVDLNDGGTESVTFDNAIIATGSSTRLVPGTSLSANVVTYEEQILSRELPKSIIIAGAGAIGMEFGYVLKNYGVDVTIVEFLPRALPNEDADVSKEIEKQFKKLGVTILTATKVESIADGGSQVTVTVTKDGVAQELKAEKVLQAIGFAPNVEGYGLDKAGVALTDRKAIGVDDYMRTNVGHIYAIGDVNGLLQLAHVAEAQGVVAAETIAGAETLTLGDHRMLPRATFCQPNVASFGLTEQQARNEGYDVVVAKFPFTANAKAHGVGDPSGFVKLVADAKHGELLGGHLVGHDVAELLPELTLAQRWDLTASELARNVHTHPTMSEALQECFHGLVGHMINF
T1 sequence (P9WIS7 1-553): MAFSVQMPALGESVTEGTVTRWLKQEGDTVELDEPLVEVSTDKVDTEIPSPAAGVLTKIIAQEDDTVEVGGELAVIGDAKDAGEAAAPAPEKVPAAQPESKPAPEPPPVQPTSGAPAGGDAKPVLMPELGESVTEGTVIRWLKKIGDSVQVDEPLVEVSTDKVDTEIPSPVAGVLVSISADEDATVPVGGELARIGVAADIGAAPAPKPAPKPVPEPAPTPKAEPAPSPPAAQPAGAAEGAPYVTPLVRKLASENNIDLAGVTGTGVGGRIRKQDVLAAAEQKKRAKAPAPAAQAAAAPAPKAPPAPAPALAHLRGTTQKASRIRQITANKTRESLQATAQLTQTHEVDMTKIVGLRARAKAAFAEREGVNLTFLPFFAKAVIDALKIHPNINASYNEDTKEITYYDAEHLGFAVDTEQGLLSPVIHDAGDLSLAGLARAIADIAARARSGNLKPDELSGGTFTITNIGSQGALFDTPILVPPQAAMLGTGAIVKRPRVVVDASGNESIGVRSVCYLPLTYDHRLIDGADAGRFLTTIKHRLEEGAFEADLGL
T1 sequence (P9WQB5 1-177): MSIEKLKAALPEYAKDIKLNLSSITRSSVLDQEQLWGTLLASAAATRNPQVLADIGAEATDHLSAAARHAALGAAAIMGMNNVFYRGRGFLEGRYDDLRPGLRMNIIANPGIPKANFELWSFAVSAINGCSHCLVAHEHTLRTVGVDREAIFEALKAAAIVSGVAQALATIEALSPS
In words: DTNB screening assay (Lpd/SucB/AhpD protein mixture). The note with it: for Target: which of the 3 enzymes (AhpD, Lpd, SucB) is inhibited, and mode of inhibition. It is filed as biochemical. As to the method:
The screen was performed in Falcon Microtest 384-well 30 μl assay plates using the DTNB (5,5′-dithiobis-(2-nitrobenzoic acid)) assay.
The protein mixture (200 nM Lpd, 350 nM SucB, 36 nM AhpD) was dispensed into each well in 10 μl using a multi-channel pump dispenser. Compounds were added to the protein mix by a single dip (1 nl) with a pin-transfer robot. Plates with the protein mix and added compounds were incubated on a shaker for 30 min at room temperature. The concentration of compounds during incubation was 50 μM. Reaction mixture (200 μM NADH, 150 μM DTNB in 100 mM potassium phosphate, pH 7.0, 2 mM EDTA) was added to each well in 10 μl after pre-incubation and the plate was read at 405 nm for “time 0 min” values. Plates were incubated on a shaker for 30 min at room temperature to complete the reaction and were read at 405 nm for “time 30 min.” “Time 0 min” values were subtracted from “time 30 min” values and were taken as an end-point value for the assay. Control wells contained only protein and reaction mixtures without any compounds added and were taken as 100% activity values. The final concentrations of all components during the reaction were as follows: Lpd, 100 nM; SucB, 175 nM; AhpD, 18 nM; NADH, 100 μM; DTNB, 75 μM; potassium phosphate, 50 mM; EDTA, 1 mM; compounds, 25 μM.

The target in assay [2] is T2, AhpD (Mycobacterium tuberculosis, UniProt P9WQB5).
T2 construct: The AhpD open reading frame (ORF) was amplified by PCR with engineered 5′ NdeI and 3′ NheI sites and cloned into pET11c; made in house; host or cells: E. coli BL21(DE3), pET11c
T2 sequence (P9WQB5 1-177): T1 sequence (P9WQB5 1-177)
In words: Inhibition constant for the enzyme identified as target: AhpD. It is filed as biochemical.

Where two headings read alike, the source gives them in different places.

One may read the IC50 as the concentration needed to halve the response being measured. Consider `O=C(O)c1ccc(N2C(=O)/C(=C/c3ccc(-c4ccc(Br)cc4)o3)C=C2c2ccccc2)cc1` [2150-0146], for which the IC50 in assay [1] (DTNB assay, 100 nM Lpd, 175 nM SucB, 18 nM AhpD, 100 μM NADH, 75 μM DTNB, pH 7.0, read-out: IC50) amounted to 4.2 µM.

What is called Ki is a dissociation constant, usually derived from enzyme kinetics or from competition with a known ligand. Read a low Ki as higher affinity. On to `Cc1cc(C)cc(/N=C2/NC(=O)/C(=C\c3cc(Br)c(O)c([N+](=O)O)c3)S2)c1` [2368-0687], for which, in assay [1], the IC50 is 10.5 µM and the Target entry is given as “AhpD (Com- pet Inhib.)”. This compound also returned a Ki in assay [2] of 5 µM.

As for `O=C(O)CCN1C(=O)/C(=C\c2ccc(-c3cccc(C(F)(F)F)c3)o2)SC1=S` [2556-0286], in assay [1], the IC50 was 4.4 µM and the Target result was “SucB (Com- pet Inhib.)”.

Consider `O=C(O)CN1C(=O)/C(=C\c2ccc(-c3cccc(Cl)c3Cl)o2)SC1=S` [3229-2113], for which, in assay [1], the IC50 was 8.2 µM and the Target result is recorded as “SucB (Com- pet Inhib.)”.
